Columns and labels:
[1] = biological target: T1, HiBit-BRG1 fusion protein (Homo sapiens, UniProt P51532); assay: HiBiT-BRG1 cell-based degradation assay (Nano-Glo HiBiT Lytic Detection, 24 h); conditions: HeLa cell line expressing HiBit-BRG1 and LgBit; for Dmax: read-out: BRG1 HiBit Degradation Maximum (%); for DC50: read-out: BRMG1 HiBit Degradation IC50
T1 construct: expressed in transfected cells
Outline: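 Seed 5000 HeLa HiBit-BRG1/LgBit cells per well; treat 24 h; equilibrate 15 min at room temperature; add Nano-Glo HiBiT lytic reagent, shake 10 min, read luminescence. Percent degradation is scaled between DMSO and 2 μM reference degrader wells.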

HiBit-BRM fusion protein = biological target: T2, HiBit-BRM fusion protein (Homo sapiens, UniProt P51531); assay: HiBiT-BRM cell-based degradation assay (Nano-Glo HiBiT Lytic Detection, 24 h); conditions: HeLa cell line expressing HiBiT-BRM; for DC50: read-out: BRM HiBit Degradation IC50
T2 construct: expressed in transfected cells
Outline: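 Percent BRM loss was derived from HiBiT luminescence relative to DMSO-treated cells and cells given 2 μM of a known BRM/BRG1 degrader. Treatment lasted 24 h in HiBiT-BRM HeLa cells, with a top final concentration of 30 μM.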

T2 sequence (P51531 whole entry, the tested form may be a part): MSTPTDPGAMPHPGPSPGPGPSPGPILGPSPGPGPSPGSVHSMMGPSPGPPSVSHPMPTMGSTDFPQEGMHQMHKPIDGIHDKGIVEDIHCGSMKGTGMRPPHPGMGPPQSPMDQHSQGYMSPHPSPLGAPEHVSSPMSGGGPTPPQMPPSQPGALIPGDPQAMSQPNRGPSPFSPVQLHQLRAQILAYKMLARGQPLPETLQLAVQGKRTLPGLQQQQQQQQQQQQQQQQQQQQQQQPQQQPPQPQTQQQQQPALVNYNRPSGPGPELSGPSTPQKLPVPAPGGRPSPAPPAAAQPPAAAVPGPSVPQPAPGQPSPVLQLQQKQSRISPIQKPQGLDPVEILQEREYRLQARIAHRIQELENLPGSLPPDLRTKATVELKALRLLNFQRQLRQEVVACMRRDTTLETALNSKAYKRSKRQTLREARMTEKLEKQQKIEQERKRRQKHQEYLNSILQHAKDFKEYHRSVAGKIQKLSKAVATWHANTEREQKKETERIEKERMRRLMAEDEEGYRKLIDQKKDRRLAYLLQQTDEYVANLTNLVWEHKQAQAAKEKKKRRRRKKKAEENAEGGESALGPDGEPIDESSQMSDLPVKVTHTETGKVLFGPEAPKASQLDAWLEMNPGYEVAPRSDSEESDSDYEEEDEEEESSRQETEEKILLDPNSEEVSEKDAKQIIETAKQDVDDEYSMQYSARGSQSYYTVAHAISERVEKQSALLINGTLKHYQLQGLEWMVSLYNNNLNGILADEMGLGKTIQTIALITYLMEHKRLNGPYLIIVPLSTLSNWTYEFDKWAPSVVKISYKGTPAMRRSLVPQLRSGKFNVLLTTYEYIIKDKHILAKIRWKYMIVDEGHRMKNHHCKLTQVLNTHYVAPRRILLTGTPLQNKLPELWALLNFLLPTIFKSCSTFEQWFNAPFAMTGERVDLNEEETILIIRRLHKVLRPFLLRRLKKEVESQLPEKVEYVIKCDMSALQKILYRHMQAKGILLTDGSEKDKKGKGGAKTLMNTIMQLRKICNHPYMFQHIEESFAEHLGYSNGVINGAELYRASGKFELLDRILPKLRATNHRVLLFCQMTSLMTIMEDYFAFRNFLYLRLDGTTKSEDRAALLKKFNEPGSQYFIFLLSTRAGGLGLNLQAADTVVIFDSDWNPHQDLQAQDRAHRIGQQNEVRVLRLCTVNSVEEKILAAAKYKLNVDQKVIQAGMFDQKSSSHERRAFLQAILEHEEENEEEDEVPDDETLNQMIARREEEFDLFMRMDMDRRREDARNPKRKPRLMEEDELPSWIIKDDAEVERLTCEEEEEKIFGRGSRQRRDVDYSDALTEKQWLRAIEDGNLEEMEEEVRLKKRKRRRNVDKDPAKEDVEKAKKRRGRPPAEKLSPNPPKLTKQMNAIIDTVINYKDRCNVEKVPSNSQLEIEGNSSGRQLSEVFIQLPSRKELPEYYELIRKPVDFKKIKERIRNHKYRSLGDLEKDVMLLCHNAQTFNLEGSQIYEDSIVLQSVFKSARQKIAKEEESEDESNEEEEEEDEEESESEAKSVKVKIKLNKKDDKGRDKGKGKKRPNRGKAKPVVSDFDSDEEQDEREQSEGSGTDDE
T1 sequence (P51532 whole entry, the tested form may be a part): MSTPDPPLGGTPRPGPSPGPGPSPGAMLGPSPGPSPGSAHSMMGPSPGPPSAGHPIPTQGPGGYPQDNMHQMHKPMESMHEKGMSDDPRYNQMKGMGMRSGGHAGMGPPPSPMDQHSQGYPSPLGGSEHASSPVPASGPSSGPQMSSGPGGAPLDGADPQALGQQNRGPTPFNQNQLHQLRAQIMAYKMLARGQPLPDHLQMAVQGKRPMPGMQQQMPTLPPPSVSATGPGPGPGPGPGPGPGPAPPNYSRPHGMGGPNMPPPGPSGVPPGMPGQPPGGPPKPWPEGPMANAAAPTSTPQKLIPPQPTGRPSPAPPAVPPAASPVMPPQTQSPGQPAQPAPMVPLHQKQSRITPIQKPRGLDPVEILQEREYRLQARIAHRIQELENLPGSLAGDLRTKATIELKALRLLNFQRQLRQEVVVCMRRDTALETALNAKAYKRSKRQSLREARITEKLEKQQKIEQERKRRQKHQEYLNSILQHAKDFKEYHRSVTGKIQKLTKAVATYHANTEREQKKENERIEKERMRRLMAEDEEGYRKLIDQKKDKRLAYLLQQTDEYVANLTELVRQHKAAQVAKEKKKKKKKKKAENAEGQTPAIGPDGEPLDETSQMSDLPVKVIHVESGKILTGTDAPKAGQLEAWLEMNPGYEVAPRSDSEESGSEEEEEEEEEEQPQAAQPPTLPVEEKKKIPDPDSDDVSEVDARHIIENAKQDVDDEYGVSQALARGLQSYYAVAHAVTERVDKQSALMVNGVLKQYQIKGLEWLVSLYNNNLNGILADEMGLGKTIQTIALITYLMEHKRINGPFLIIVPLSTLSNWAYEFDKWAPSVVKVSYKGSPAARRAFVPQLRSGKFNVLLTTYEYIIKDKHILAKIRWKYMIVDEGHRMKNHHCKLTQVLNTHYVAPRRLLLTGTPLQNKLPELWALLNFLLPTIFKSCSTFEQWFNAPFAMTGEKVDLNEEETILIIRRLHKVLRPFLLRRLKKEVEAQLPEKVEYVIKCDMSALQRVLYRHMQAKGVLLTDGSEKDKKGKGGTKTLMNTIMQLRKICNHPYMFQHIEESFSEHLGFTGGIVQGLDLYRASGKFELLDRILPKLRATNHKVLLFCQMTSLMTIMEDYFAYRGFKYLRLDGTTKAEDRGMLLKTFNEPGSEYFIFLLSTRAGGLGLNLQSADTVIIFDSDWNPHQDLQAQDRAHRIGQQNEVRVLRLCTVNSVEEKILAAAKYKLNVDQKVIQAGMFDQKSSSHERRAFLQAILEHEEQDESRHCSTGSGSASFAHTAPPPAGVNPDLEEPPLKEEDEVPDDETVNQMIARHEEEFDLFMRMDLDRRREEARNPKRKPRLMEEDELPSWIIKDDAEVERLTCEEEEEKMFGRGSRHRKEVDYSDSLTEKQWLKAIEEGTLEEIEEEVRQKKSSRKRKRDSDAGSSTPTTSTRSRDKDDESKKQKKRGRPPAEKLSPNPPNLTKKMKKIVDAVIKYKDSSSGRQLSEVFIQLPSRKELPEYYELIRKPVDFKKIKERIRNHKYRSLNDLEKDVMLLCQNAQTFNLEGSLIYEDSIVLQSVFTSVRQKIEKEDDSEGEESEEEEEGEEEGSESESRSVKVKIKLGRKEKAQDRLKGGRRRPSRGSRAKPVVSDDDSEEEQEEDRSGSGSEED

Row | Structure (SMILES) | Dmax [1] [%] | DC50 (HiBit-BRM fusion protein) [nM] | DC50 [1] [nM] | BRM HiBit Degradation Maximum (%) (HiBit-BRM fusion protein)
1 | Cc1ncsc1-c1ccc([C@H](C)NC(=O)[C@@H]2C[C@@H](O)CN2C(=O)[C@@H](c2cc(N3CCN(C(=O)C(=O)N4CC(c5c[nH]c6nnc(-c7ccccc7O)cc56)C4)CC3)no2)C(C)C)cc1 (racemic) [Compound 267, (2S,4R)-4-hydroxy-1-((R)-2-(3-(4-(2-(3-(3-(2-hydroxyphenyl)-7H-pyrrolo[2,3-c]pyridazin-5-yl)azetidin-1-yl)-2-oxoacetyl)piperazin-1-yl)isoxazol-5-yl)-3-methylbutanoyl)-N-((S)-1-(4-(4-methylthiazol-5-yl)phenyl)ethyl)pyrrolidine-2-carboxamide] | < 50 | > 100 |  | A (“A” indicates maximum degradation ≥ 75%)
2 | Cc1ncsc1-c1ccc([C@H](C)NC(=O)[C@@H]2C[C@@H](O)CN2C(=O)[C@@H](c2cc(N3CCN(CCC(=O)N4CC(c5cc6cc(-c7ccccc7O)nnc6[nH]5)C4)CC3)no2)C(C)C)cc1 (racemic) [Compound 268, (2S,4R)-4-hydroxy-1-[(2R)-2-{3-[4-(3-{3-[3-(2-hydroxyphenyl)-7H-pyrrolo[2,3-c]pyridazin-6-yl]azetidin-1-yl}-3-oxopropyl)piperazin-1-yl]-1,2-oxazol-5-yl}-3-methylbutanoyl]-N-[(1S)-1-[4-(4-methyl-1,3-thiazol-5-yl)phenyl]ethyl]pyrrolidine-2-carboxamide] |  | > 100 | > 1000 | A (“A” indicates maximum degradation ≥ 75%)
3 | Cc1ncsc1-c1ccc([C@H](C)NC(=O)[C@@H]2C[C@@H](O)CN2C(=O)[C@@H](c2cc(OCCN3CCC(c4[nH]c5nnc(-c6ccccc6O)cc5c4C)CC3)no2)C(C)C)cc1 (racemic) [Compound 270, (2S,4R)-4-hydroxy-1-[(2R)-2-[3-(2-{4-[3-(2-hydroxyphenyl)-5-methyl-7H-pyrrolo[2,3-c]pyridazin-6-yl]piperidin-1-yl}ethoxy)-1,2-oxazol-5-yl]-3-methylbutanoyl]-N-[(1S)-1-[4-(4-methyl-1,3-thiazol-5-yl)phenyl]ethyl]pyrrolidine-2-carboxamide] | > 75 | < 10 | > 10 | A (“A” indicates maximum degradation ≥ 75%)
4 | Cc1ncsc1-c1ccc([C@H](C)NC(=O)[C@@H]2C[C@@H](O)CN2C(=O)[C@@H](c2cc(OCCN3CCC(N4CC(c5[nH]c6nnc(-c7ccccc7O)cc6c5C)C4)CC3)no2)C(C)C)cc1 (racemic) [Compound 271, (2S,4R)-4-hydroxy-1-((R)-2-(3-(2-(4-(3-(3-(2-hydroxyphenyl)-5-methyl-7H-pyrrolo[2,3-c]pyridazin-6-yl)azetidin-1-yl)piperidin-1-yl)ethoxy)isoxazol-5-yl)-3-methylbutanoyl)-N-((S)-1-(4-(4-methylthiazol-5-yl)phenyl)ethyl)pyrrolidine-2-carboxamide] | > 75 | < 10 | > 10 | A (“A” indicates maximum degradation ≥ 75%)
5 | Cc1ncsc1-c1ccc([C@H](C)NC(=O)[C@@H]2C[C@@H](O)CN2C(=O)[C@@H](c2cc(OCCN3CC(C)(c4cc5cc(-c6ccccc6O)nnc5[nH]4)C3)no2)C(C)C)cc1 (racemic) [Compound 275, (2S,4R)-4-hydroxy-1-((R)-2-(3-(2-(3-(3-(2-hydroxyphenyl)-7H-pyrrolo[2,3-c]pyridazin-6-yl)-3-methylazetidin-1-yl)ethoxy)isoxazol-5-yl)-3-methylbutanoyl)-N-((S)-1-(4-(4-methylthiazol-5-yl)phenyl)ethyl)pyrrolidine-2-carboxamide] | < 50 | > 10 |  | A (“A” indicates maximum degradation ≥ 75%)
6 | Cc1ncsc1-c1ccc([C@H](C)NC(=O)[C@@H]2C[C@@H](O)CN2C(=O)[C@@H](c2cc(OCCN3CCC(C)(c4cc5cc(-c6ccccc6O)nnc5[nH]4)CC3)no2)C(C)C)cc1 (racemic) [Compound 276, (2S,4R)-4-hydroxy-1-((R)-2-(3-(2-(4-(3-(2-hydroxyphenyl)-7H-pyrrolo[2,3-c]pyridazin-6-yl)-4-methylpiperidin-1-yl)ethoxy)isoxazol-5-yl)-3-methylbutanoyl)-N-((S)-1-(4-(4-methylthiazol-5-yl)phenyl)ethyl)pyrrolidine-2-carboxamide] | > 50 | > 10 | > 1000 | A (“A” indicates maximum degradation ≥ 75%)
7 | Cc1ncsc1-c1ccc([C@H](C)NC(=O)[C@@H]2C[C@@H](O)CN2C(=O)[C@@H](c2cc(OCCN3CCC(O)(c4cc5cc(-c6ccccc6O)nnc5[nH]4)CC3)no2)C(C)C)cc1 (racemic) [Compound 277, (2S,4R)-4-hydroxy-1-((R)-2-(3-(2-(4-hydroxy-4-(3-(2-hydroxyphenyl)-7H-pyrrolo[2,3-c]pyridazin-6-yl)piperidin-1-yl)ethoxy)isoxazol-5-yl)-3-methylbutanoyl)-N-((S)-1-(4-(4-methylthiazol-5-yl)phenyl)ethyl)pyrrolidine-2-carboxamide] | < 50 | > 100 |  | A (“A” indicates maximum degradation ≥ 75%)

More lines, main results first:

Row | Dmax [1] [%] | DC50 (HiBit-BRM fusion protein) [nM] | DC50 [1] [nM] | Structure (SMILES) | BRM HiBit Degradation Maximum (%) (HiBit-BRM fusion protein)
8 | < 50 | > 100 |  | Cc1ncsc1-c1ccc([C@H](C)NC(=O)[C@@H]2C[C@@H](O)CN2C(=O)[C@@H](c2cc(OCCN3CCC(c4c(C)[nH]c5nnc(-c6ccccc6O)cc45)CC3)no2)C(C)C)cc1 (racemic) [Compound 265, (2S,4R)-4-hydroxy-1-[(2R)-2-[3-(2-{4-[3-(2-hydroxyphenyl)-6-methyl-7H-pyrrolo[2,3-c]pyridazin-5-yl]piperidin-1-yl}ethoxy)-1,2-oxazol-5-yl]-3-methylbutanoyl]-N-[(1S)-1-[4-(4-methyl-1,3-thiazol-5-yl)phenyl]ethyl]pyrrolidine-2-carboxamide] | A (“A” indicates maximum degradation ≥ 75%)
9 | > 75 | > 10 | > 100 | Cc1ncsc1-c1ccc([C@H](C)NC(=O)[C@@H]2C[C@@H](O)CN2C(=O)[C@@H](c2onc(OCCN3CC(c4cc5cc(-c6ccccc6O)nnc5[nH]4)C3)c2Cl)C(C)C)cc1 (racemic) [Compound 266, (2S,4R)-1-((R)-2-(4-chloro-3-(2-(3-(3-(2-hydroxyphenyl)-7H-pyrrolo[2,3-c]pyridazin-6-yl)azetidin-1-yl)ethoxy)isoxazol-5-yl)-3-methylbutanoyl)-4-hydroxy-N-((S)-1-(4-(4-methylthiazol-5-yl)phenyl)ethyl)pyrrolidine-2-carboxamide] | A (“A” indicates maximum degradation ≥ 75%)
10 | > 75 | > 10 | > 100 | Cc1ncsc1-c1ccc([C@H](C)NC(=O)[C@@H]2C[C@@H](O)CN2C(=O)[C@@H](c2cc(N3CCN(C(=O)CN4CC(c5cc6cc(-c7ccccc7O)nnc6[nH]5)C4)CC3)no2)C(C)C)cc1 (racemic) [Compound 269, (2S,4R)-4-hydroxy-1-((R)-2-(3-(4-(2-(3-(3-(2-hydroxyphenyl)-7H-pyrrolo[2,3-c]pyridazin-6-yl)azetidin-1-yl)acetyl)piperazin-1-yl)isoxazol-5-yl)-3-methylbutanoyl)-N-((S)-1-(4-(4-methylthiazol-5-yl)phenyl)ethyl)pyrrolidine-2-carboxamide] | A (“A” indicates maximum degradation ≥ 75%)
11 | > 75 | > 10 | > 100 | Cc1ncsc1-c1ccc([C@H](C)NC(=O)[C@@H]2C[C@@H](O)CN2C(=O)C(c2cc(N3CCC(C(=O)N4CC(c5cc6cc(-c7ccccc7O)nnc6[nH]5)C4)CC3)no2)C(C)C)cc1 (mixture of isomers) [Compound 274, (2S,4R)-4-hydroxy-1-((S)-2-(3-(4-(3-(3-(2-hydroxyphenyl)-7H-pyrrolo[2,3-c]pyridazin-6-yl)azetidine-1-carbonyl)piperidin-1-yl)isoxazol-5-yl)-3-methylbutanoyl)-N-((S)-1-(4-(4-methylthiazol-5-yl)phenyl)ethyl)pyrrolidine-2-carboxamide] | A (“A” indicates maximum degradation ≥ 75%)
12 | > 50 | > 10 | > 10 | Cc1ncsc1-c1ccc([C@H](C)NC(=O)[C@@H]2C[C@@H](O)CN2C(=O)[C@@H](c2cc(OCCN3CCC[C@H](c4cc5cc(-c6ccccc6O)nnc5[nH]4)C3)no2)C(C)C)cc1 (racemic) [Compound 278, (2S,4R)-4-hydroxy-1-((R)-2-(3-(2-((S)-3-(3-(2-hydroxyphenyl)-7H-pyrrolo[2,3-c]pyridazin-6-yl)piperidin-1-yl)ethoxy)isoxazol-5-yl)-3-methylbutanoyl)-N-((S)-1-(4-(4-methylthiazol-5-yl)phenyl)ethyl)pyrrolidine-2-carboxamide] | A (“A” indicates maximum degradation ≥ 75%)
13 | < 50 | > 10 |  | Cc1ncsc1-c1ccc([C@H](C)NC(=O)[C@@H]2C[C@@H](O)CN2C(=O)[C@@H](c2cc(OCCN3CCC[C@@H](c4cc5cc(-c6ccccc6O)nnc5[nH]4)C3)no2)C(C)C)cc1 (racemic) [Compound 279, (2S,4R)-4-hydroxy-1-((R)-2-(3-(2-((R)-3-(3-(2-hydroxyphenyl)-7H-pyrrolo[2,3-c]pyridazin-6-yl)piperidin-1-yl)ethoxy)isoxazol-5-yl)-3-methylbutanoyl)-N-((S)-1-(4-(4-methylthiazol-5-yl)phenyl)ethyl)pyrrolidine-2-carboxamide] | A (“A” indicates maximum degradation ≥ 75%)
